Assay results: the NIST ThermoML archive (doi:10.1021/je300742t)
Numbers after ± are expanded uncertainties.

Conditions: 298.15 K, 101.33 kPa, Liquid; for viscosity: Capillary tube (Ostwald / Ubbelohde) method; for speed of sound: Sing-around technique in a fixed-path interferometer; for mass density: Vibrating tube method

Row | viscosity | speed of sound | mass density | SMILES
1 | 18.74 ± 0.13 mPa·s | 1719.2 ± 1.7 m/s | 1011.98 ± 0.3 kg/m3 | NCCO [2-aminoethan-1-ol]
2 | 1.681 ± 0.013 mPa·s | 1545.2 ± 1.7 m/s | 1028.3 ± 0.31 kg/m3 | CN1CCCC1=O [N-methylpyrrolidone]
